In PubChem BioAssay AID1259407 (Chemical Carcinogenesis Research Information System (CCRIS), 2018) one finds mutagenic call data, which are given here for nine compounds.

The subject of this data set is CCRIS mutagenicity, Ames/micronucleus/aberration tests. Briefly: CCRIS mutagenicity studies.
Setting [1] is: Test System: AMES SALMONELLA TYPHIMURIUM, Strain/Indicator: TA98, Metabolic Activation: NONE, Method: PREINCUBATION
The mark [2] stands for this setting: Test System: AMES SALMONELLA TYPHIMURIUM, Strain/Indicator: TA100, Metabolic Activation: NONE, Method: PREINCUBATION
Where [3] appears, read: Test System: AMES SALMONELLA TYPHIMURIUM, Strain/Indicator: TA1535, Metabolic Activation: NONE, Method: PREINCUBATION
The mark [4] stands for this setting: Test System: AMES SALMONELLA TYPHIMURIUM, Strain/Indicator: TA98, Metabolic Activation: NONE, Method: STANDARD PLATE.
The mark [5] stands for this setting: Test System: AMES SALMONELLA TYPHIMURIUM, Strain/Indicator: TA98, Metabolic Activation: RAT, LIVER, S-9, AROCLOR 1254, Method: STANDARD PLATE.
The mark [6] stands for this setting: Test System: AMES SALMONELLA TYPHIMURIUM, Strain/Indicator: TA100, Metabolic Activation: NONE, Method: STANDARD PLATE.
[7] abbreviates: Test System: AMES SALMONELLA TYPHIMURIUM, Strain/Indicator: TA100, Metabolic Activation: RAT, LIVER, S-9, AROCLOR 1254, Method: STANDARD PLATE.
[8] abbreviates: Test System: AMES SALMONELLA TYPHIMURIUM, Strain/Indicator: TA1537, Metabolic Activation: NONE, Method: STANDARD PLATE.

Molecules are shown by their SMILES. The source made the active and inactive calls. No rule for the calls is given here.

Consider `CCCCCCCCCCCCO`, for which the mutagenic call is “inactive; negative” under setting [1]; “inactive; negative” (Test System: AMES SALMONELLA TYPHIMURIUM, Strain/Indicator: TA98, Metabolic Activation: RAT, LIVER, S-9, KC 500, Method: PREINCUBATION); “inactive; negative” under setting [2]; “inactive; negative” (Test System: AMES SALMONELLA TYPHIMURIUM, Strain/Indicator: TA100, Metabolic Activation: RAT, LIVER, S-9, KC 500, Method: PREINCUBATION); “inactive; negative” under setting [3]; “inactive; negative” (Test System: AMES SALMONELLA TYPHIMURIUM, Strain/Indicator: TA1535, Metabolic Activation: RAT, LIVER, S-9, KC 500, Method: PREINCUBATION). The mutagenic call is, setting by setting: (Test System: AMES SALMONELLA TYPHIMURIUM, Strain/Indicator: TA1537, Metabolic Activation: NONE, Method: PREINCUBATION) “inactive; negative”; (Test System: AMES SALMONELLA TYPHIMURIUM, Strain/Indicator: TA1537, Metabolic Activation: RAT, LIVER, S-9, KC 500, Method: PREINCUBATION) “inactive; negative”; (Test System: AMES SALMONELLA TYPHIMURIUM, Strain/Indicator: TA1538, Metabolic Activation: NONE, Method: PREINCUBATION) “inactive; negative”; (Test System: AMES SALMONELLA TYPHIMURIUM, Strain/Indicator: TA1538, Metabolic Activation: RAT, LIVER, S-9, KC 500, Method: PREINCUBATION) “inactive; negative”; (Test System: E. COLI, Strain/Indicator: WP2 UVRA, Metabolic Activation: NONE, Method: PREINCUBATION) “inactive; negative”; (Test System: E. COLI, Strain/Indicator: WP2 UVRA, Metabolic Activation: RAT, LIVER, S-9, KC 500, Method: PREINCUBATION) “inactive; negative”.
Consider `O=C(/C=C/c1ccc(Oc2ccccc2)cc1)c1ccccc1`, for which the mutagenic call is “inactive; negative” under setting [4], “inactive; negative” under setting [5], “inactive; negative” under setting [6] and “inactive; negative” under setting [7].
Take `CCCCC(CC)COCC1CO1` (stereo not drawn): the mutagenic call reads like this: (Test System: AMES SALMONELLA TYPHIMURIUM, Strain/Indicator: TA97, Metabolic Activation: HAMSTER, LIVER, S-9, AROCLOR 1254 (10%), Method: PREINCUBATION) “inactive; negative”; (Test System: AMES SALMONELLA TYPHIMURIUM, Strain/Indicator: TA97, Metabolic Activation: NONE, Method: PREINCUBATION) “inactive; negative”; (Test System: AMES SALMONELLA TYPHIMURIUM, Strain/Indicator: TA97, Metabolic Activation: RAT, LIVER, S-9, AROCLOR 1254 (10%), Method: PREINCUBATION) “inactive; negative”; (Test System: AMES SALMONELLA TYPHIMURIUM, Strain/Indicator: TA98, Metabolic Activation: HAMSTER, LIVER, S-9, AROCLOR 1254 (10%), Method: PREINCUBATION) “inactive; negative”; under setting [1], “inactive; negative”; (Test System: AMES SALMONELLA TYPHIMURIUM, Strain/Indicator: TA98, Metabolic Activation: RAT, LIVER, S-9, AROCLOR 1254 (10%), Method: PREINCUBATION) “inactive; negative”. For the same compound, the mutagenic call reads like this: (Test System: AMES SALMONELLA TYPHIMURIUM, Strain/Indicator: TA100, Metabolic Activation: HAMSTER, LIVER, S-9, AROCLOR 1254 (10%), Method: PREINCUBATION) “inactive; negative”; under setting [2], “inactive; negative”; (Test System: AMES SALMONELLA TYPHIMURIUM, Strain/Indicator: TA100, Metabolic Activation: RAT, LIVER, S-9, AROCLOR 1254 (5 OR 30%), Method: PREINCUBATION) “inactive; negative”; (Test System: AMES SALMONELLA TYPHIMURIUM, Strain/Indicator: TA100, Metabolic Activation: RAT, LIVER, S-9, AROCLOR 1254 (30%), Method: PREINCUBATION) “inactive; negative”; (Test System: AMES SALMONELLA TYPHIMURIUM, Strain/Indicator: TA1535, Metabolic Activation: HAMSTER, LIVER, S-9, AROCLOR 1254 (10%), Method: PREINCUBATION) “inactive; negative”; under setting [3], “inactive; negative”. Also, the mutagenic call runs as follows: (Test System: AMES SALMONELLA TYPHIMURIUM, Strain/Indicator: TA1535, Metabolic Activation: RAT, LIVER, S-9, AROCLOR 1254 (5% & 10%), Method: PREINCUBATION) “active; positive”; (Test System: AMES SALMONELLA TYPHIMURIUM, Strain/Indicator: TA1535, Metabolic Activation: RAT, LIVER, S-9, AROCLOR 1254 (5 OR 10%), Method: PREINCUBATION) “active; positive”; (Test System: AMES SALMONELLA TYPHIMURIUM, Strain/Indicator: TA1535, Metabolic Activation: RAT, LIVER, S-9, AROCLOR 1254 (30%), Method: PREINCUBATION) “inactive; negative”.
As for `CC(Br)C(N)=O` (stereo not drawn), the mutagenic call is, setting by setting: (Test System: AMES SALMONELLA TYPHIMURIUM, Strain/Indicator: TA100, Metabolic Activation: MOUSE, LIVER, S-9, AROCLOR 1254, Method: STANDARD PLATE) “active; positive”; under setting [6], “active; positive”.
For `C(=Nc1ccccc1)c1cccc2cccnc12`, the mutagenic call reads like this: under setting [4], “inactive; negative”; under setting [5], “inactive; negative”; under setting [6], “inactive; negative”; under setting [7], “active; positive”; (Test System: AMES SALMONELLA TYPHIMURIUM, Strain/Indicator: TA1535, Metabolic Activation: NONE, Method: STANDARD PLATE) “inactive; negative”; (Test System: AMES SALMONELLA TYPHIMURIUM, Strain/Indicator: TA1535, Metabolic Activation: RAT, LIVER, S-9, AROCLOR 1254, Method: STANDARD PLATE) “inactive; negative”. Moreover, the mutagenic call by setting is: under setting [8], “inactive; negative”; (Test System: AMES SALMONELLA TYPHIMURIUM, Strain/Indicator: TA1537, Metabolic Activation: RAT, LIVER, S-9, AROCLOR 1254, Method: STANDARD PLATE) “inactive; negative”.
For `Clc1ccc2oc3ccccc3c2c1`, the mutagenic call runs as follows: under setting [4], “active; positive”; (Test System: AMES SALMONELLA TYPHIMURIUM, Strain/Indicator: TA98, Metabolic Activation: RAT, LIVER, S-9, PHENOBARBITAL AND NAPHTHOFLAVONE, Method: STANDARD PLATE) “active; positive”; under setting [6], “inactive; negative”; (Test System: AMES SALMONELLA TYPHIMURIUM, Strain/Indicator: TA100, Metabolic Activation: RAT, LIVER, S-9, PHENOBARBITAL AND NAPHTHOFLAVONE, Method: STANDARD PLATE) “inactive; negative”.
In the case of `OC[C@H]1O[C@@H](n2cnc3c(=S)nc[nH]c32)[C@H](O)[C@@H]1O`, the mutagenic call is, setting by setting: under setting [4], “inactive; negative”; under setting [6], “active; positive”; (Test System: AMES SALMONELLA TYPHIMURIUM, Strain/Indicator: TA102, Metabolic Activation: NONE, Method: STANDARD PLATE) “inactive; negative”; under setting [8], “inactive; negative”; (Test System: E. COLI, Strain/Indicator: WP2 (HCR), Metabolic Activation: NONE, Method: STANDARD PLATE) “inactive; negative”.
Turning to `COc1ccccc1NC(=O)C(N=Nc1ccc(-c2ccc(N=NC(C(C)=O)C(=O)Nc3ccccc3OC)c(Cl)c2)cc1Cl)C(C)=O` (stereo not drawn), under “Test System: AMES SALMONELLA TYPHIMURIUM, Strain/Indicator: TA98, Metabolic Activation: HAMSTER, LIVER, S-9, Method: PREINCUBATION (PRIVAL METHOD)”, the mutagenic call was “inactive; negative”.
For the compound `Cc1cc2c(cc1C)C(C)c1ccccc1-2` (stereo not drawn), the mutagenic call was “active; positive” under setting [5] and “active; positive” under setting [7].
